A short description of one data set: Cyto-toxicity, MTT assay. Type of data set: cell-based. The note with it: read-out: Cytotoxicity % viability. (In general: Formazan colour is commonly taken as a measure of viable cells.)
In data set [1] the test system is HIV-1 strains, for e.g., 92HT599. In words: Antiviral activity: p24 estimation in HIV-1 infected MT-2 cells. The class given is cell-based. The note with it: for inhibition at 0.01 µM / inhibition at 0.1 µM / inhibition at 1 µM: p24, ~96 hours. As to the method: MT-2 cells were infected with required number of TCID50's of HIV-1 strains, for e.g., 92HT599. The infected cells were plated at the concentration of 30,000 cells per well in a 96 well plate. Test compound was added to the 96 well plate with the final concentration of DMSO (vehicle—not more than 1%). The plates are then incubated in a CO2 incubator for ˜96 hours (˜4 days) for viral infection. At the end of incubation period an aliquot from each well was taken for p24 estimation. The quantitation of p24 is an estimated index for antiviral activity of the compound. Percent inhibition was calculated with reference to control values (vehicle controls).
p-24 estimation was carried out using Advance biosciences kit as per the procedure detailed by supplier.

Data set [2] is described as follows: Single dose oral pharmacokinetic study. Also on record: species or system mice. The conditions noted are these: mouse, in vivo. As to the method:
The test item was administered through oral route to animals (rat/mice) at 30 mg/kg dose in a suitable vehicle at 10 ml/kg dose volume. Blood samples (˜50 uL at each time point) were collected from retro-orbital plexus using K3 EDTA as anticoagulant in eppendorf tubes at defined time intervals under light ether anesthesia. The samples were centrifuged at 3500×g to separate plasma and stored at −80° C. until analysis.
Sample analysis: Test samples were analyzed using LC-MS-MS after developing fit-for-purpose method for each of test compound.

Where [3] appears, read: Human immunodeficiency virus 1, MT2, MT-2 cells.
[4] abbreviates: Human immunodeficiency virus 1, MT2, MT-2 cells, p24, read-out: Antiviral activity IC50.

Where two headings read alike, the source gives them in different places.

The viability is the share of living cells, or the viability signal relative to a control. Usually inhibition stands for how much of the control response was suppressed. The term AUC(0-t) denotes the area under the concentration-time curve up to a stated or last time point. For orientation: Cmax means the maximum level reached in the sampled fluid or tissue. As a reminder, the IC50 is the concentration that gives 50% inhibition.

Description for Cyto-toxicity, MTT assay: On day 1 calculate the number of cells required for the assay and seed 3×10^4 cells in 200 μl per well. Weigh the compound and dissolve it in DMSO to get 10 mM stock which is further diluted to 3 mM and 1 mM. The drugs from these stocks were added to plate to get final concentration of 100 μM, 30 μM and 10 μM. […] Incubate for 4 days in 5% CO2 incubator at 37° C. On day 4, 100 μl of medium was removed from each well without disturbing the cells. Add 10 μl of MTT reagent and incubate for 4 hours at 5% CO2 incubator at 37° C. for formation of crystals. Add 200 μl of 0.1N acidic isopropanol to dissolve the crystals and read the plate at 590 nm.

In the case of `C=C(C)[C@@H]1CC[C@]2(C(=O)N3CCC[C@H]3c3nc(-c4cccc(F)c4)cn3CCN(C)C)CC[C@]3(C)[C@H](CC[C@@H]4[C@@]5(C)CC[C@H](OC(=O)[C@H]6C[C@@H](C(=O)O)C6(C)C)C(C)(C)[C@@H]5CC[C@]43C)[C@@H]12` [Compound 12, (1R,3S)-3-((((1R,3aS,5aR,5bR,7aR,9S,11aR,11bR,13aR,13bR)-3a-((S)-2-(1-(2-(dimethylamino)ethyl)-4-(3-fluorophenyl)-1H-imidazol-2-yl)pyrrolidine-1-carbonyl)-5a,5b,8,8,11a-pentamethyl-1-(prop-1-en-2-yl)icosahydro-1H-cyclopenta[a]chrysen-9-yl)oxy)carbonyl)-2,2-dimethyl cyclobutane-1-carboxylic acid], in the data set “Cyto-toxicity, MTT assay”, the viability at 4 days, 10 µM was determined as 42%; the viability at 4 days, 30 µM was found to be 31%; the viability at 4 days, 100 µM was 5%. Further, in data set [1] (setting [3]), the inhibition at 0.01 µM is 24%, the inhibition at 0.1 µM is 44% and the inhibition at 1 µM was 99%.

For `C=C(C)[C@@H]1CC[C@]2(C(=O)N3CCC[C@H]3c3nc(-c4ccc(F)cc4)cn3CCP(=O)(OCC)OCC)CC[C@]3(C)[C@H](CC[C@@H]4[C@@]5(C)CC[C@H](OC(=O)[C@H]6C[C@@H](C(=O)O)C6(C)C)C(C)(C)[C@@H]5CC[C@]43C)[C@@H]12` [Compound 24, (1R,3S)-3-((((1R,3aS,5aR,5bR,7aR,9S,11aR,11bR,13aR,13bR)-3a-((S)-2-(1-(2-(diethoxyphosphoryl)ethyl)-4-(4-fluorophenyl)-1H-imidazol-2-yl)pyrrolidine-1-carbonyl)-5a,5b,8,8,11a-pentamethyl-1-(prop-1-en-2-yl)icosahydro-1H-cyclopenta[a]chrysen-9-yl)oxy)carbonyl)-2,2-dimethylcyclobutane-1-carboxylic acid], the AUC(0-t) in data set [2] (Mice oral PK @30 mg/kg, plasma, read-out: AUC 0-t) came to 89.4 µg·h/mL. In addition, the Cmax in data set [2] (Mice oral PK @30 mg/kg, plasma, read-out: Cmax) is 2550 ng/mL. In data set [1] (Human immunodeficiency virus 1, MT2, read-out: Antiviral activity IC50 (nM)), the IC50 is 0.972 nM.

`C=C(C)[C@@H]1CC[C@]2(C(=O)N3C[C@H](OCCOC)C[C@H]3c3nc(-c4ccccc4)cn3CCC(C)C)CC[C@]3(C)[C@H](CC[C@@H]4[C@@]5(C)CC[C@H](OC(=O)[C@H]6C[C@@H](C(=O)O)C6(C)C)C(C)(C)[C@@H]5CC[C@]43C)[C@@H]12` [Compound 26, (1R,3S)-3-((((1R,3aS,5aR,5bR,7aR,9S,11aR,11bR,13aR,13bR)-3a-((2S,4R)-2-(1-isopentyl-4-phenyl-1H-imidazol-2-yl)-4-(2-methoxyethoxy)pyrrolidine-1-carbonyl)-5a,5b,8,8,11a-pentamethyl-1-(prop-1-en-2-yl)icosahydro-1H-cyclopenta[a]chrysen-9-yl)oxy)carbonyl)-2,2-dimethylcyclobutane-1-carboxylic acid]: in the data set “Cyto-toxicity, MTT assay”, the viability at 4 days, 10 µM was determined as 77%; the viability at 4 days, 30 µM was determined as 54%; the viability at 4 days, 100 µM worked out at 9%. Besides, in data set [1] (setting [3]), the inhibition at 0.01 µM is 0%, the inhibition at 0.1 µM is 15% and the inhibition at 1 µM is 99%.

Consider `C=C(C)[C@@H]1CC[C@]2(C(=O)N3CCC[C@H]3c3nc(-c4cccnc4)cn3CCN(C)C)CC[C@]3(C)[C@H](CC[C@@H]4[C@@]5(C)CC[C@H](OC(=O)[C@H]6C[C@@H](C(=O)O)C6(C)C)C(C)(C)[C@@H]5CC[C@]43C)[C@@H]12` [Compound 6, (1R,3S)-3-((((1R,3aS,5aR,5bR,7aR,9S,11aR,11bR,13aR,13bR)-3a-((S)-2-(1-(2-(dimethylamino)ethyl)-4-(pyridin-3-yl)-1H-imidazol-2-yl)pyrrolidine-1-carbonyl)-5a,5b,8,8,11a-pentamethyl-1-(prop-1-en-2-yl)icosahydro-1H-cyclopenta[a]chrysen-9-yl)oxy)carbonyl)-2,2-dimethyl cyclobutane-1-carboxylic acid], for which, in data set [2] (po, 30 mg/kg), the AUC(0-t) was 212 µg·h/mL and the highest level (Cmax) was 9460 ng/mL. The IC50 in data set [1] (setting [4]) was 2.55 nM.

In data set [2] (po, 30 mg/kg), `C=C(C)[C@@H]1CC[C@]2(C(=O)N3CCC[C@H]3c3nc(-c4ccccc4)cn3CCN3CCCC3)CC[C@]3(C)[C@H](CC[C@@H]4[C@@]5(C)CC[C@H](OC(=O)[C@H]6C[C@@H](C(=O)O)C6(C)C)C(C)(C)[C@@H]5CC[C@]43C)[C@@H]12` [Compound 10, (1R,3S)-2,2-dimethyl-3-((((1R,3aS,5aR,5bR,7aR,9S,11aR,11bR,13aR,13bR)-5a,5b,8,8,11a-pentamethyl-3a-((S)-2-(4-phenyl-1-(2-(pyrrolidin-1-yl)ethyl)-1H-imidazol-2-yl)pyrrolidine-1-carbonyl)-1-(prop-1-en-2-yl)icosahydro-1H-cyclopenta[a]chrysen-9-yl)oxy)carbonyl)cyclo butane-1-carboxylic acid] had an AUC(0-t) of 145 µg·h/mL and a Cmax of 4640 ng/mL. Also, the IC50 in data set [1] (setting [4]) is 7.75 nM.

On to `C=C(C)[C@@H]1CC[C@]2(C(=O)N3CCC[C@H]3c3nc(-c4ccccc4)cn3CCN(C)C)CC[C@]3(C)[C@H](CC[C@@H]4[C@@]5(C)CC[C@H](OC(=O)[C@H]6C[C@@H](C(=O)O)C6(C)C)C(C)(C)[C@@H]5CC[C@]43C)[C@@H]12` [Compound 5, (1R,3S)-3-((((1R,3aS,5aR,5bR,7aR,9S,11aR,11bR,13aR,13bR)-3a-((S)-2-(1-(2-(dimethylamino)ethyl)-4-phenyl-1H-imidazol-2-yl)pyrrolidine-1-carbonyl)-5a,5b,8,8,11a-pentamethyl-1-(prop-1-en-2-yl)icosahydro-1H-cyclopenta[a]chrysen-9-yl)oxy)carbonyl)-2,2-dimethylcyclobutane-1-carboxylic acid], for which, in data set [2] (po, 30 mg/kg), the exposure AUC(0-t) stood at 292 µg·h/mL and the peak level (Cmax) was 10400 ng/mL. In addition, the IC50 in data set [1] (setting [4]) is 73.2 nM.

Regarding `C=C(C)[C@@H]1CC[C@]2(C(=O)N3CCC[C@H]3c3nc(-c4ccccc4)cn3C)CC[C@]3(C)[C@H](CC[C@@H]4[C@@]5(C)CC[C@H](OC(=O)CC(C)(C)C(=O)O)C(C)(C)[C@@H]5CC[C@]43C)[C@@H]12` [Compound 15, 2,2-dimethyl-4-oxo-4-(((1R,3aS,5aR,5bR,7aR,9S,11aR,11bR,13aR,13bR)-5a,5b,8,8,11a-pentamethyl-3a-((S)-2-(1-methyl-4-phenyl-1H-imidazol-2-yl)pyrrolidine-1-carbonyl)-1-(prop-1-en-2-yl)icosahydro-1H-cyclopenta[a]chrysen-9-yl)oxy)butanoic acid], in data set [2] (po, 30 mg/kg), the AUC(0-t) came to 376 µg·h/mL and the highest level (Cmax) was 15300 ng/mL. The IC50 in data set [1] (setting [4]) was 7.42 nM.

In data set [2] (po, 30 mg/kg), `C=C(C)[C@@H]1CC[C@]2(C(=O)N3CCC[C@H]3c3nc(-c4ccccc4)cn3CCN3CCOCC3)CC[C@]3(C)[C@H](CC[C@@H]4[C@@]5(C)CC[C@H](OC(=O)[C@H]6C[C@@H](C(=O)O)C6(C)C)C(C)(C)[C@@H]5CC[C@]43C)[C@@H]12` [Compound 3, (1R,3S)-2,2-dimethyl-3-((((1R,3aS,5aR,5bR,7aR,9S,11aR,11bR,13aR,13bR)-5a,5b,8,8,11a-pentamethyl-3a-((S)-2-(1-(2-morpholinoethyl)-4-phenyl-1H-imidazol-2-yl)pyrrolidine-1-carbonyl)-1-(prop-1-en-2-yl)icosahydro-1H-cyclopenta[a]chrysen-9-yl)oxy)carbonyl)cyclo butane-1-carboxylic acid] returned an AUC(0-t) of 407 µg·h/mL and a Cmax of 14700 ng/mL. The IC50 in data set [1] (setting [4]) is 113 nM.

In data set [2] (po, 30 mg/kg), `CN(C)CCn1cc(-c2cccnc2)nc1[C@@H]1CCCN1C(=O)[C@]12CC[C@@H](C3(C)CC3)[C@@H]1[C@H]1CC[C@@H]3[C@@]4(C)CC[C@H](OC(=O)[C@H]5C[C@@H](C(=O)O)C5(C)C)C(C)(C)[C@@H]4CC[C@@]3(C)[C@]1(C)CC2` [Compound 19, (1R,3S)-3-((((1R,3aS,5aR,5bR,7aR,9S,11aR,11bR,13aR,13bR)-3a-((S)-2-(1-(2-(dimethylamino)ethyl)-4-(pyridin-3-yl)-1H-imidazol-2-yl)pyrrolidine-1-carbonyl)-5a,5b,8,8,11a-pentamethyl-1-(1-methylcyclopropyl)icosahydro-1H-cyclopenta[a]chrysen-9-yl)oxy)carbonyl)-2,2-dimethylcyclobutane-1-carboxylic acid] yielded an AUC(0-t) of 97.4 µg·h/mL and a peak concentration (Cmax) of 4260 ng/mL. Further, in data set [1] (setting [4]), the IC50 is 7.76 nM.

Turning to `C=C(C)[C@@H]1CC[C@]2(C(=O)N3CCC[C@H]3c3nc(-c4cccnc4)cn3CCN(C)C)CC[C@]3(C)[C@H](CC[C@@H]4[C@@]5(C)CC[C@H](OC(=O)CC(C)(C)C(=O)O)C(C)(C)[C@@H]5CC[C@]43C)[C@@H]12` [Compound 18, 4-(((1R,3aS,5aR,5bR,7aR,9S,11aR,11bR,13aR,13bR)-3a-((S)-2-(1-(2-(dimethylamino)ethyl)-4-(pyridin-3-yl)-1H-imidazol-2-yl)pyrrolidine-1-carbonyl)-5a,5b,8,8,11a-pentamethyl-1-(prop-1-en-2-yl)icosahydro-1H-cyclopenta[a]chrysen-9-yl)oxy)-2,2-dimethyl-4-oxobutanoic acid], in data set [2] (po, 30 mg/kg), the AUC(0-t) is 3.01 µg·h/mL and the highest level (Cmax) was 648 ng/mL. Moreover, the IC50 in data set [1] (setting [4]) was 80.4 nM.
